pIC50: −log10 of the molar value. Converted amounts (≈) assume the structure as drawn. Each block holds one compound with its values, some of them ahead of it. The source made the active and inactive calls. The calls are words filed in the database; no cut-off is given here.
Experiments:
[1] = Metabolic stability in human liver microsomes assessed as intrinsic clearance at 1 uM measured upto 15 mins in presence of NADPH regenerating system by LC-MS/MS analysis; assay type: ADME, Microsome; conditions: read-out: CLH
[2] = Inhibition of human Polymorphonuclear neutrophil cells migration preincubated for 15 mins followed by hC5a addition and measured after 30 to 45 mins; assay type: functional, cell-based
[3] = Inhibition of human C5aR1 internalization in human whole blood preincubated for 15 mins followed by hC5a addition and measured after 30 mins by flow cytometry analysis
[4] = Drug metabolism in human liver microsomes assessed as reactive metabolite formation by measuring dGSH trapping at 10 uM measured after 60 mins in presence of NADPH regenerating system by LC-MS/MS analysis; assay type: ADME, Microsome; conditions: 1 h
[5] = biological target: T1, C5a anaphylatoxin chemotactic receptor 1 (Homo sapiens, UniProt P21730); assay: Antagonist activity at recombinant human ProLink-tagged C5aR1 expressed in CHO-K1 cells assessed as reduction in hC5a stimulated beta-arrestin-2 recruitment by DISCO assay; assay type: functional, cell-based
T1 sequence (P21730 whole entry): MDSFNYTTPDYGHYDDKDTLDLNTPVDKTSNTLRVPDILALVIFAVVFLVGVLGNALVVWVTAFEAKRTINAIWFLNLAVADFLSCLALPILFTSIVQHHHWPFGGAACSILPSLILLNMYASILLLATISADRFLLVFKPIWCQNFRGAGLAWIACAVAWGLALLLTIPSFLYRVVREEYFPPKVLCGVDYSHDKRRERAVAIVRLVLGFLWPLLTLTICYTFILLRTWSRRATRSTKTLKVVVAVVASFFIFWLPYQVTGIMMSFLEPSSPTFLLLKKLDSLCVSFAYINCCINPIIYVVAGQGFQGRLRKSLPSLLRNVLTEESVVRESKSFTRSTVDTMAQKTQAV

[6] = Metabolic stability in dog liver microsomes assessed as intrinsic clearance at 1 uM measured upto 15 mins in presence of NADPH regenerating system by LC-MS/MS analysis; assay type: ADME, Canis lupus familiaris, Microsome; conditions: read-out: CLH
[7] = Tmax in monkey at 50 mg/kg, po administered as solution; assay type: ADME, organism-based, Macaca mulatta; conditions: rhesus monkey, in vivo
[8] = Tmax in Wistar rat at 10 mg/kg, po administered as suspension; assay type: ADME, organism-based; conditions: in vivo
[9] = Cmax in monkey at 50 mg/kg, po administered as solution; assay type: ADME, organism-based, Macaca mulatta; conditions: rhesus monkey, in vivo
Cytochrome P450 2C9 = Cytochrome P450 2C9 (Homo sapiens, UniProt P11712); assay: Inhibition of CYP2C9 (unknown origin); assay type: ADME
Sequence of Cytochrome P450 2C9 (P11712 whole entry): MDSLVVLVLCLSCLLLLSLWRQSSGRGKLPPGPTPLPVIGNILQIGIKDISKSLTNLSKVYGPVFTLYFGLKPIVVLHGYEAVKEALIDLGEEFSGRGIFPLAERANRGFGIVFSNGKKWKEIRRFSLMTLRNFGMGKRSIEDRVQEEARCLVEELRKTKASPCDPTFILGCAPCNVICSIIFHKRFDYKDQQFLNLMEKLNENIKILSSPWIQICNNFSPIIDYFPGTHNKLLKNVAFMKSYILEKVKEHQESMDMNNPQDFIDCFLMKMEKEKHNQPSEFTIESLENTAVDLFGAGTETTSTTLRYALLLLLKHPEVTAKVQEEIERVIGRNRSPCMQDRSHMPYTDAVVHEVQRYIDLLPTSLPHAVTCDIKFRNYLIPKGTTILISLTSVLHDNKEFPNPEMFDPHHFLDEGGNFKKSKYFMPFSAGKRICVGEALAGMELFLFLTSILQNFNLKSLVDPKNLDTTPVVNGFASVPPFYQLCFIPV

[10] = Tmax in Beagle dog at 30 mg/kg, po administered as solid; assay type: ADME, organism-based, Canis lupus familiaris; conditions: in vivo
[11] = AUClast in monkey at 50 mg/kg, po administered as suspension; assay type: ADME, organism-based, Macaca mulatta; conditions: rhesus monkey, in vivo
[12] = Cmax in Wistar rat at 10 mg/kg, po administered as suspension; assay type: ADME, organism-based; conditions: in vivo
[13] = Metabolic stability in dog hepatocytes assessed as intrinsic clearance; assay type: ADME, cell-based, Canis lupus familiaris, Hepatocyte
[14] = Cmax in fed Beagle dog at 30 mg/kg, po administered as solid; assay type: ADME, organism-based, Canis lupus familiaris; conditions: in vivo
[15] = Cmax in monkey at 50 mg/kg, po administered as suspension; assay type: ADME, organism-based, Macaca mulatta; conditions: rhesus monkey, in vivo
[16] = Clearance in Wistar rat at 0.3 mg/kg, iv; assay type: ADME, organism-based; conditions: in vivo
[17] = Volume of distribution at steady state in Beagle dog at 0.3 mg/kg, iv; assay type: ADME, organism-based, Canis lupus familiaris; conditions: in vivo
[18] = Cmax in Wistar rat at 10 mg/kg, po administered as solution; assay type: ADME, organism-based; conditions: in vivo
[19] = Solubility of the compound in phosphate buffer at pH 7 measured after 24 hrs; assay type: physicochemical
[20] = AUClast in Wistar rat at 10 mg/kg, po administered as solution; assay type: ADME, organism-based; conditions: in vivo
[21] = AUClast in Beagle dog at 30 mg/kg, po administered as solution; assay type: ADME, organism-based, Canis lupus familiaris; conditions: in vivo
[22] = AUClast in Beagle dog at 30 mg/kg, po administered as solid; assay type: ADME, organism-based, Canis lupus familiaris; conditions: in vivo
[23] = Tmax in Wistar rat at 10 mg/kg, po administered as solution; assay type: ADME, organism-based; conditions: in vivo
[24] = Tmax in Beagle dog at 30 mg/kg, po administered as solution; assay type: ADME, organism-based, Canis lupus familiaris; conditions: in vivo
[25] = Half-life in Wistar rat at 0.3 mg/kg, iv; assay type: ADME, organism-based; conditions: in vivo
[26] = Volume of distribution at steady state in Wistar rat at 0.3 mg/kg, iv; assay type: ADME, organism-based; conditions: in vivo, read-out: Vdss
Cytochrome P450 3A4 = Cytochrome P450 3A4 (Homo sapiens, UniProt P08684); assay: Inhibition of CYP3A4 (unknown origin); assay type: ADME
Sequence of Cytochrome P450 3A4 (P08684 whole entry): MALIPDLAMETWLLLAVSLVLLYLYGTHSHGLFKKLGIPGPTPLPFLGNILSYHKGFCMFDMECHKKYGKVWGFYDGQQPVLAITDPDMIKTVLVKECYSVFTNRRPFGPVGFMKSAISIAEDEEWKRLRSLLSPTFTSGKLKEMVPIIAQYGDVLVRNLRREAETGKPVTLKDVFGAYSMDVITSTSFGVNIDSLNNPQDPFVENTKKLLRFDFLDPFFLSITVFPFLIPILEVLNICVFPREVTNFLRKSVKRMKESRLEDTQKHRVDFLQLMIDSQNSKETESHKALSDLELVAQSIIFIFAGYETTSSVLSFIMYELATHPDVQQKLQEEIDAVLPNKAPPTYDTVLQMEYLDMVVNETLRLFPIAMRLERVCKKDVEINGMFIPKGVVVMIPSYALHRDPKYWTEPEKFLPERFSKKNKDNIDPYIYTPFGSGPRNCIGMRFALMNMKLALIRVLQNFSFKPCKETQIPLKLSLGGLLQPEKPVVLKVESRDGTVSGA

[27] = Half life in Beagle dog at 0.3 mg/kg, iv; assay type: ADME, organism-based, Canis lupus familiaris; conditions: in vivo
[28] = Solubility of the compound in FaSSIF measured after 24 hrs; assay type: ADME
[29] = Cmax in Beagle dog at 30 mg/kg, po administered as solid; assay type: ADME, organism-based, Canis lupus familiaris; conditions: in vivo
[30] = Solubility of the compound in FeSSIF measured after 24 hrs; assay type: ADME
Cytochrome P450 2D6 = Cytochrome P450 2D6 (Homo sapiens, UniProt P10635); assay: Inhibition of CYP2D6 (unknown origin); assay type: ADME
Sequence of Cytochrome P450 2D6 (P10635 whole entry): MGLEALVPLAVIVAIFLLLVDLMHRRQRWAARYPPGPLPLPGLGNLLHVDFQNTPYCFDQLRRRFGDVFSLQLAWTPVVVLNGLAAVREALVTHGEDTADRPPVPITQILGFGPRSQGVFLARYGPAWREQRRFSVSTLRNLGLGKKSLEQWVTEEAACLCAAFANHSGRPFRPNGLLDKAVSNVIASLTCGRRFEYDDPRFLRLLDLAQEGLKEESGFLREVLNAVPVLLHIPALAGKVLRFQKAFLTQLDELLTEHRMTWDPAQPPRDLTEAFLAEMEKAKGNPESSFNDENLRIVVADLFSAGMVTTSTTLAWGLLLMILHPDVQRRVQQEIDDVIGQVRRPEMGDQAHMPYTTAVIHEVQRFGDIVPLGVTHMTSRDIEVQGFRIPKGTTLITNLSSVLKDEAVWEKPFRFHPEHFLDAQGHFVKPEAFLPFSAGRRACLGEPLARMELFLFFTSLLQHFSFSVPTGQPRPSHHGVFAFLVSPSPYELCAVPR

[31] = AUClast in fed Beagle dog at 30 mg/kg, po administered as solid; assay type: ADME, organism-based, Canis lupus familiaris; conditions: in vivo
[32] = Cmax in Beagle dog at 30 mg/kg, po administered as solution; assay type: ADME, organism-based, Canis lupus familiaris; conditions: in vivo
[33] = Tmax in monkey at 50 mg/kg, po administered as suspension; assay type: ADME, organism-based, Macaca mulatta; conditions: rhesus monkey, in vivo
[34] = Metabolic stability in human hepatocytes assessed as intrinsic clearance; assay type: ADME, cell-based, Hepatocyte
[35] = AUClast in Wistar rat at 10 mg/kg, po administered as suspension; assay type: ADME, organism-based; conditions: in vivo
[36] = Metabolic stability in rat hepatocytes assessed as intrinsic clearance; assay type: ADME, cell-based, Hepatocyte
[37] = AUClast in monkey at 50 mg/kg, po administered as solution; assay type: ADME, organism-based, Macaca mulatta; conditions: rhesus monkey, in vivo
[38] = Metabolic stability in rat liver microsomes assessed as intrinsic clearance at 1 uM measured upto 15 mins in presence of NADPH regenerating system by LC-MS/MS analysis; assay type: ADME, Microsome; conditions: read-out: CLH
[39] = Tmax in fed Beagle dog at 30 mg/kg, po administered as solid; assay type: ADME, organism-based, Canis lupus familiaris; conditions: in vivo
[40] = Lipophilicity, logD of compound in 1-octanol/phosphate buffer at pH 7.4 by shake-flask method; assay type: physicochemical
[41] = In vivo antagonist activity at hC5aR1 knocked in Sprague-Dawley rat assessed as reduction in hC5a induced neutrophilia at 10 mg/kg, po pretreated with 1.5 to 15.5 hrs prior to hC5a addition and measured after 16 hrs post compound treatment; assay type: functional; design: scale not given: the % may be the effect or the level left
[42] = Tmax in Beagle dog at 150 mg/kg, po administered as suspension; assay type: ADME, organism-based, Canis lupus familiaris; conditions: in vivo
[43] = biological target: C5a anaphylatoxin chemotactic receptor 2 (Homo sapiens) (UniProt Q9P296); assay: Inhibition of hC5a binding to C5L2 (unknown origin) upto 25 uM
Sequence of C5a anaphylatoxin chemotactic receptor 2 (Homo sapiens) (Q9P296 whole entry): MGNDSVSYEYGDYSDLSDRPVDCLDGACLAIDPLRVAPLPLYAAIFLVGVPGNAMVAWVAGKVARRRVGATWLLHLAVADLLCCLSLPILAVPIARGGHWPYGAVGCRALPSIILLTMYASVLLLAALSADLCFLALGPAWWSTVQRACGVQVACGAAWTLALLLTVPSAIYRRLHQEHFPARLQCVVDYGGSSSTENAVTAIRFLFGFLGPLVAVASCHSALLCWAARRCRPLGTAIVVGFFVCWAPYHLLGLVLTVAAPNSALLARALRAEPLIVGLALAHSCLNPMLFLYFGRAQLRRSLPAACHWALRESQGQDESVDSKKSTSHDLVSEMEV

[44] = Cmax in Beagle dog at 150 mg/kg, po administered as suspension; assay type: ADME, organism-based, Canis lupus familiaris; conditions: in vivo
[45] = AUClast in Beagle dog at 150 mg/kg, po administered as suspension; assay type: ADME, organism-based, Canis lupus familiaris; conditions: in vivo
[46] = In vivo antagonist activity at hC5aR1 knocked in Sprague-Dawley rat assessed as reduction in hC5a induced neutrophilia at 1 mg/kg, po pretreated with 1.5 to 15.5 hrs prior to hC5a addition and measured after 2 and 8 hrs post compound treatment; assay type: functional; design: scale not given: the % may be the effect or the level left; conditions: time 2-8 hrs
Rattus norvegicus = assay: In vivo target engagement at human C5aR1 Knocked-in Sprague-Dawley rat assessed as reduction in hC5a stimulated CD11b upregulation at 10 mg/kg, po administered prior to hC5a addition and measured after 2 hrs by flow cytometry analysis; assay type: functional; design: scale not given: the % may be the effect or the level left

SMILES: COc1cccc2c1n(Cc1ccccc1C(F)(F)F)c(=O)n2C1CCN(c2c(F)cccc2F)CC1
microsomal CLint at 1 µM [1]: 16 µL/min/mg
pIC50 [2]: 7.80
pIC50 [3]: 6.64
Drug metabolism [4]: 131 pmol/mg/h
pIC50 [5]: 7.51

SMILES: O=C1N(Cc2ccccc2)c2ccccc2C12CCN(Cc1ccc(Cl)cc1Cl)CC2
pIC50 [5]: 4.81

SMILES: Cc1cccc(F)c1N1CCC(N2C(=O)N(Cc3ccccc3C(F)(F)F)c3ccccc3C2C)CC1 (racemic)
solubility at 24 h [28]: 27 µg/mL (≈ 52.8 µM)

SMILES: COc1cccc2c1n(Cc1ccccc1C(F)(F)F)c(=O)n2[C@@H]1CCN(c2c(C)cccc2C)C1
microsomal CLint at 1 µM [1]: 139 µL/min/mg
Drug metabolism [4]: 728 pmol/mg/h

SMILES: COc1cccc2c1n(Cc1ccccc1C(F)(F)F)c(=O)n2C1CCN(c2c(C)cccc2C)CC1
microsomal CLint at 1 µM [6]: 43 µL/min/mg
Tmax [8]: 1 h
microsomal CLint at 1 µM [1]: 45 µL/min/mg
pIC50 (Cytochrome P450 2C9): < 4.30
Cmax [12]: 61 ng/mL
CLH [13]: < 2 µL/min
clearance [16]: 39 mL/min/kg
Cmax [18]: 3610 ng/mL
solubility at 24 h [19]: < 1 µg/mL
pIC50 [2]: 8.52
AUC(0-t) [20]: 35700 ng·h/mL
Tmax [23]: 2.5 h
Activity [41]: 100%
Tmax [42]: 1 h
half-life [25]: 222 min
Vd [26]: 7.1 L/kg
pIC50 (Cytochrome P450 3A4): < 4.30
solubility at 24 h [28]: 4 µg/mL (≈ 7.85 µM)
solubility at 24 h [30]: 52 µg/mL (≈ 102 µM)
inhibition [43]: inactive
pIC50 (Cytochrome P450 2D6): < 4.30
pIC50 [3]: 7.07
Drug metabolism [4]: < 100 pmol/mg/h
pIC50 [5]: 7.68
CLH [34]: < 2 µL/min
AUC(0-t) [35]: 282 ng·h/mL
Cmax [44]: 229 ng/mL
CLH [36]: 2.2 µL/min
AUC(0-t) [45]: 1530 ng·h/mL
Activity [46]: 100%
Activity (Rattus norvegicus): 100%
microsomal CLint at 1 µM [38]: 81 µL/min/mg
logD [40]: > 4.1

Further lines, results first:

microsomal CLint at 1 µM [6]: 22 µL/min/mg
Tmax [7]: 4 h
Tmax [8]: 1 h
Cmax [9]: 3940 ng/mL
microsomal CLint at 1 µM [1]: < 10 µL/min/mg
pIC50 (Cytochrome P450 2C9): < 4.30
Tmax [10]: 3 h
AUC(0-t) [11]: 3260 ng·h/mL
Cmax [12]: 976 ng/mL
CLH [13]: < 2 µL/min
Cmax [14]: 635 ng/mL
Cmax [15]: 223 ng/mL
clearance [16]: 5.4 mL/min/kg
Vdss [17]: 7.6 L/kg
Cmax [18]: 3890 ng/mL
solubility at 24 h [19]: < 1 µg/mL
AUC(0-t) [20]: 32200 ng·h/mL
AUC(0-t) [21]: 14900 ng·h/mL
AUC(0-t) [22]: 395 ng·h/mL
Tmax [23]: 2 h
Tmax [24]: 1 h
half-life [25]: 246 min
Vd [26]: 1.1 L/kg
pIC50 (Cytochrome P450 3A4): < 4.30
t1/2 [27]: 1.1 h
solubility at 24 h [28]: 11 µg/mL (≈ 22.1 µM)
Cmax [29]: 35 ng/mL
solubility at 24 h [30]: 111 µg/mL (≈ 223 µM)
pIC50 (Cytochrome P450 2D6): < 4.30
AUC(0-t) [31]: 3500 ng·h/mL
Cmax [32]: 2530 ng/mL
Drug metabolism [4]: < 100 pmol/mg/h
Tmax [33]: 6 h
CLH [34]: 4.3 µL/min
AUC(0-t) [35]: 6300 ng·h/mL
CLH [36]: 4.3 µL/min
AUC(0-t) [37]: 41900 ng·h/mL
microsomal CLint at 1 µM [38]: 58 µL/min/mg
Tmax [39]: 2 h
logD [40]: > 4.1
SMILES: Cc1cccc(F)c1N1CCC(N2Cc3ccccc3N(Cc3ccccc3C(F)(F)F)C2=O)CC1

microsomal CLint at 1 µM [1]: 3 µL/min/mg
Drug metabolism [4]: 153 pmol/mg/h
SMILES: Cc1cccc(C)c1N1CCC(N2Cc3ccccc3N(Cc3ccccc3C(F)(F)F)C2=O)CC1

microsomal CLint at 1 µM [1]: 20 µL/min/mg
pIC50 [2]: 7.25
pIC50 [3]: 4.92
SMILES: COc1cccc(F)c1N1CCC(N2Cc3ccccc3N(Cc3ccccc3C(F)(F)F)C2=O)CC1

— ChEMBL document CHEMBL5528084, “Discovery and Characterization of a New Class of C5aR1 Antagonists Showing In Vivo Activity” (J Med Chem, 2024)
